Columns and labels:
[1] = molecular target: Death-associated protein kinase 3 (Homo sapiens) (UniProt O43293); assay: Residual activity of DAPK3 at 1 uM by microplate scintillation counting
[2] = molecular target: Platelet-derived growth factor receptor alpha (Homo sapiens) (UniProt P16234); assay: Residual activity of PDGFRalpha at 1 uM by microplate scintillation counting
[3] = molecular target: T1, cAMP-dependent protein kinase catalytic subunit PRKX (Homo sapiens) (UniProt P51817); assay: Residual activity of PRKX at 0.1 uM by microplate scintillation counting
T1 sequence (whole entry): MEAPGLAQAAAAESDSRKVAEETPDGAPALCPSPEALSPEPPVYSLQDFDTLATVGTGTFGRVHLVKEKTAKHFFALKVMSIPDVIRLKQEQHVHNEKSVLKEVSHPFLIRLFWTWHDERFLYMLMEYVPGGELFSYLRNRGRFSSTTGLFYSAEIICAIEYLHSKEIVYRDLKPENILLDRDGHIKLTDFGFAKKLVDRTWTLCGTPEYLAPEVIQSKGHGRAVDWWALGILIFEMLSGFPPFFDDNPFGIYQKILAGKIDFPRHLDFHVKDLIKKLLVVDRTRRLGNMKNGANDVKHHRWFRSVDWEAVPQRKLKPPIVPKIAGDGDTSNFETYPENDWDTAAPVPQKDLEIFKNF

[4] = molecular target: T2, Calcium/calmodulin-dependent protein kinase type IV (Homo sapiens) (UniProt Q16566); assay: Residual activity of CAMK4 at 1 uM by microplate scintillation counting
T2 sequence (whole entry): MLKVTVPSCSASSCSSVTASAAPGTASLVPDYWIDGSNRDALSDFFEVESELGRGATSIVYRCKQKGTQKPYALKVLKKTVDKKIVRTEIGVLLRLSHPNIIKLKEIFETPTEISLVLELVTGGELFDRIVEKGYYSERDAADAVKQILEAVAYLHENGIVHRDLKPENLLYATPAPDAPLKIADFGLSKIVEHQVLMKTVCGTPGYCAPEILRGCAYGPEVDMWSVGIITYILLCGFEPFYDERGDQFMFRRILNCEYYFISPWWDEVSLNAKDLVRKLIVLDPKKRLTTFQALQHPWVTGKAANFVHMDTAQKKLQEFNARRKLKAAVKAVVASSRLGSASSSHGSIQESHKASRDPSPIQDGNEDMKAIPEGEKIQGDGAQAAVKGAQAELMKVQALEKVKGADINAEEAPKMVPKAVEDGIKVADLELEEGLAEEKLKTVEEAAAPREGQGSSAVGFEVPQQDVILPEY

[5] = molecular target: Serine/threonine-protein kinase 33 (Homo sapiens) (UniProt Q9BYT3); assay: Residual activity of STK33 at 0.1 uM by microplate scintillation counting
[6] = molecular target: Tyrosine-protein kinase JAK2 (Homo sapiens) (UniProt O60674); assay: Residual activity of JAK2 at 10 uM by microplate scintillation counting
[7] = molecular target: Platelet-derived growth factor receptor beta (Homo sapiens, UniProt P09619); assay: Residual activity of PDGFRbeta at 1 uM by microplate scintillation counting
[8] = molecular target: T3, Inhibitor of nuclear factor kappa-B kinase subunit alpha (Homo sapiens) (UniProt O15111); assay: Residual activity of IKKalpha at 1 uM by microplate scintillation counting
T3 sequence (whole entry): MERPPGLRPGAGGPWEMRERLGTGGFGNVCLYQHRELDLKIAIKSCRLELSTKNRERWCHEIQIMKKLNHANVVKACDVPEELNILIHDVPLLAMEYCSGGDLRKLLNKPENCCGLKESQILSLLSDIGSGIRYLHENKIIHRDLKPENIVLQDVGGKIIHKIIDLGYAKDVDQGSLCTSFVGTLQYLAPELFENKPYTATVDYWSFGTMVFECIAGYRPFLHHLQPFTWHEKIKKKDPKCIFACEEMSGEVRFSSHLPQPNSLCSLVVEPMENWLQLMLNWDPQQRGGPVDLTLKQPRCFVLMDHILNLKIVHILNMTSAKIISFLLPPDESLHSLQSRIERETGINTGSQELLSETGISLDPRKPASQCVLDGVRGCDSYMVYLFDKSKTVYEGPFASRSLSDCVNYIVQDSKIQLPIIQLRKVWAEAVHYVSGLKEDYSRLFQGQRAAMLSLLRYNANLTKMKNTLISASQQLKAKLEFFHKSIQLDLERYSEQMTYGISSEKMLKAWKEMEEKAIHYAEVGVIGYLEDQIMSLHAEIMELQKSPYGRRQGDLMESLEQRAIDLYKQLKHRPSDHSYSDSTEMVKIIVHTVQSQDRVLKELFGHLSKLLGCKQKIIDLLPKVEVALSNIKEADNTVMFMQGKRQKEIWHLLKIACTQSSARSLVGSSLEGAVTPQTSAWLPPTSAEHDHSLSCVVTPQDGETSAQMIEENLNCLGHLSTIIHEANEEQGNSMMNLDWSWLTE

[9] = molecular target: Mitogen-activated protein kinase 10 (Homo sapiens) (UniProt P53779); assay: Residual activity of JNK3 at 0.1 uM by microplate scintillation counting
[10] = molecular target: T4, Inhibitor of nuclear factor kappa-B kinase subunit epsilon (Homo sapiens) (UniProt Q14164); assay: Residual activity of IKKepsilon at 1 uM by microplate scintillation counting
T4 sequence (whole entry): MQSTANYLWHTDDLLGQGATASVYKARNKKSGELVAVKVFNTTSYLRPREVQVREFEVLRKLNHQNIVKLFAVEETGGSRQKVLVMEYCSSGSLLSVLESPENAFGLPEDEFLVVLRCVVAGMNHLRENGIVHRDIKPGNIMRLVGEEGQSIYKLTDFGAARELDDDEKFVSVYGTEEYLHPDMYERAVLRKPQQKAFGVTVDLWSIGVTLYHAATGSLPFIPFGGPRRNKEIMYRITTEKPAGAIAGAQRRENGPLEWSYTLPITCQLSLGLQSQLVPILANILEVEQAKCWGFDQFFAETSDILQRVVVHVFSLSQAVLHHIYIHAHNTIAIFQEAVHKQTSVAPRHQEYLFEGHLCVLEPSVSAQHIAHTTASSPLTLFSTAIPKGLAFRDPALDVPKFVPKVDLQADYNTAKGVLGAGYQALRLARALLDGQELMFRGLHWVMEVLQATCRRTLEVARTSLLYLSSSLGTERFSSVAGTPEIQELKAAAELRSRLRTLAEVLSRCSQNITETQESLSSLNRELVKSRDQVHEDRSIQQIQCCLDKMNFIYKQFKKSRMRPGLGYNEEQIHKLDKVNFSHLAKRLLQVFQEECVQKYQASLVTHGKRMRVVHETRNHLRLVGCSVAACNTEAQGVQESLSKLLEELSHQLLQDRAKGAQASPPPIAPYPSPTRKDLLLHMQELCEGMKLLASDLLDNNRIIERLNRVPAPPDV

[11] = molecular target: Serine/threonine-protein kinase PLK1 (Homo sapiens) (UniProt P53350); assay: Residual activity of PLK1 at 10 uM by microplate scintillation counting
Serine/threonine-protein kinase PLK1 (Homo sapiens), sequence (P53350 whole entry): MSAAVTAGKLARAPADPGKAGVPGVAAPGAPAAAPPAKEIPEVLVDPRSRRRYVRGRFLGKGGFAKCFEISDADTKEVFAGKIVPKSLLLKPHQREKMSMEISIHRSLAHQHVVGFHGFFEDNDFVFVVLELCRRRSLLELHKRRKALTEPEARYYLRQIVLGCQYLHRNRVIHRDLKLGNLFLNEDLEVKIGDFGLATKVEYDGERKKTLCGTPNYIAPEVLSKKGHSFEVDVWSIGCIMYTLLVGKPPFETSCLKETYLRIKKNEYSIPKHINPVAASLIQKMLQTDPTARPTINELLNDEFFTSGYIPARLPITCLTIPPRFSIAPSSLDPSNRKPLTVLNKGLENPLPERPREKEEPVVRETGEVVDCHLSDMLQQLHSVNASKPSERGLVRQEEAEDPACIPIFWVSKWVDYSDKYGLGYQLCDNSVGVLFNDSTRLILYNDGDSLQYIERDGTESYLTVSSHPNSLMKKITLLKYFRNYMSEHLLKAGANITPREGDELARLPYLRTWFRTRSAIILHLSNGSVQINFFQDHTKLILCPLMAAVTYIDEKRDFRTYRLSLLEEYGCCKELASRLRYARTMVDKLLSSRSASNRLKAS

Platelet-derived growth factor receptor beta, sequence (P09619 whole entry): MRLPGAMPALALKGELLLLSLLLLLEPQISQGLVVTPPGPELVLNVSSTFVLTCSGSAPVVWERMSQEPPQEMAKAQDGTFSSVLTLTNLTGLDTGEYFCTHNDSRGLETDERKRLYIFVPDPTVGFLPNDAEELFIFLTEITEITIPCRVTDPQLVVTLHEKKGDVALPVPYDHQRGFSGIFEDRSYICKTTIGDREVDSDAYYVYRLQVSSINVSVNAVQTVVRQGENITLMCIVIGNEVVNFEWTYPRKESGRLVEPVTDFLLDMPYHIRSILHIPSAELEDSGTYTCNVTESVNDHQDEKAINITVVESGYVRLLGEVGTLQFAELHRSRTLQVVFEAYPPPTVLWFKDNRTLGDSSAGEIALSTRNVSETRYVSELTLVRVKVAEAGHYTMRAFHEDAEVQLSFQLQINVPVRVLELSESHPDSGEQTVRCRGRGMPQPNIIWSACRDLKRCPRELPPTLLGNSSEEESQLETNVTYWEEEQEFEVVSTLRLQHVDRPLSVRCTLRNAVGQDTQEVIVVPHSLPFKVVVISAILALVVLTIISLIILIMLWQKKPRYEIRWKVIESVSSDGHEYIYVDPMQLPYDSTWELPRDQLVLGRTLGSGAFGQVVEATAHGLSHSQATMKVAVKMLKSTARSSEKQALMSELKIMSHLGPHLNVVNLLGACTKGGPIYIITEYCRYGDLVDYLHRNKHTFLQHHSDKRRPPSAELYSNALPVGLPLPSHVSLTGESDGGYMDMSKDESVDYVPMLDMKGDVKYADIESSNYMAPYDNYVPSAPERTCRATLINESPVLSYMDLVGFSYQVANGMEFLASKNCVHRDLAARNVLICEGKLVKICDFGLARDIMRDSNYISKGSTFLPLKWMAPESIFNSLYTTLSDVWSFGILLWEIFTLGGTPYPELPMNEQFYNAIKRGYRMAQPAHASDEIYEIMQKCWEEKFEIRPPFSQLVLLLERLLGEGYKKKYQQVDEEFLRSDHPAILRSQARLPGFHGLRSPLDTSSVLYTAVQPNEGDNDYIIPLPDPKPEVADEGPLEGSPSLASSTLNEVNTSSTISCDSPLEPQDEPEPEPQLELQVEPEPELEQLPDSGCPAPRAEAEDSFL
Death-associated protein kinase 3 (Homo sapiens), sequence (O43293 whole entry, looked up): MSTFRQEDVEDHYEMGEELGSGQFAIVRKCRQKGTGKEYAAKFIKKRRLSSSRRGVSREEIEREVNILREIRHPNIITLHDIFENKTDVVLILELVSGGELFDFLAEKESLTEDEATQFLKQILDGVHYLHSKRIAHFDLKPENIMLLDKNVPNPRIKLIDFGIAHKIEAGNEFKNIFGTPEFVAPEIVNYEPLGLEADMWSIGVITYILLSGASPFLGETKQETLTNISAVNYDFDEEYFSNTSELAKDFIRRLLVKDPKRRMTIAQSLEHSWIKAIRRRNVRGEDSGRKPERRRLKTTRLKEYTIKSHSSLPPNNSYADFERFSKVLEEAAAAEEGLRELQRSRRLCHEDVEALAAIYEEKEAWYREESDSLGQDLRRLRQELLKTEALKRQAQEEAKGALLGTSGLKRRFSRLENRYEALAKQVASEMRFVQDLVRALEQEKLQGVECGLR
Tyrosine-protein kinase JAK2 (Homo sapiens), sequence (O60674 whole entry): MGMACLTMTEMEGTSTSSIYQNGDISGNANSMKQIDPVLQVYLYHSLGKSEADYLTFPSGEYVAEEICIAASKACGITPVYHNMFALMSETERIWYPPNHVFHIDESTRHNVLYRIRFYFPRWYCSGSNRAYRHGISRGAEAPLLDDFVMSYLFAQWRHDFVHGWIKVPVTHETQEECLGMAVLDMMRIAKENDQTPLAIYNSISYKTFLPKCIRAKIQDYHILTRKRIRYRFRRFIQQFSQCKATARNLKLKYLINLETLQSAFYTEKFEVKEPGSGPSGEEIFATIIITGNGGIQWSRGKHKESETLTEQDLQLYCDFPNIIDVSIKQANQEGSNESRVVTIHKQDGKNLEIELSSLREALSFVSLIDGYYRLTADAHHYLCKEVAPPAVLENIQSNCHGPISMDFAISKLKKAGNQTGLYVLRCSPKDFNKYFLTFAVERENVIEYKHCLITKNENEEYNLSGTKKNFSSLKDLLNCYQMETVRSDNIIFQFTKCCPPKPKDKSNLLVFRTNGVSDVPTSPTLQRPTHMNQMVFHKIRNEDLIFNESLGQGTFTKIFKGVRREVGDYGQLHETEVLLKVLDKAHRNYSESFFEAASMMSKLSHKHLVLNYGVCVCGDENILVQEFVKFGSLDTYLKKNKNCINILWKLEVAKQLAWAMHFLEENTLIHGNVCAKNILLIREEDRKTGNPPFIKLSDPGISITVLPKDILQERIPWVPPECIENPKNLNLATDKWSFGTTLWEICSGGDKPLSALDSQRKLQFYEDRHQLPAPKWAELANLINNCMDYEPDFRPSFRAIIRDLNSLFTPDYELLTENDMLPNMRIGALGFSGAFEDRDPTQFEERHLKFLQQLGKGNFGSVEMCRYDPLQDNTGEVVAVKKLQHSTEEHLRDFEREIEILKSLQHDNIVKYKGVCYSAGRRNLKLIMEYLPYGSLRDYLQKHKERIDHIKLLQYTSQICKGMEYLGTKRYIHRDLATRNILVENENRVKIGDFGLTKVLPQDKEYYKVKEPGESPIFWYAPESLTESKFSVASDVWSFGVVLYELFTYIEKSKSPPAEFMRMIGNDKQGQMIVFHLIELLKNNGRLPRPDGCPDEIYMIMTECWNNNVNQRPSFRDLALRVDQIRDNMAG
Serine/threonine-protein kinase 33 (Homo sapiens), sequence (Q9BYT3 whole entry, looked up): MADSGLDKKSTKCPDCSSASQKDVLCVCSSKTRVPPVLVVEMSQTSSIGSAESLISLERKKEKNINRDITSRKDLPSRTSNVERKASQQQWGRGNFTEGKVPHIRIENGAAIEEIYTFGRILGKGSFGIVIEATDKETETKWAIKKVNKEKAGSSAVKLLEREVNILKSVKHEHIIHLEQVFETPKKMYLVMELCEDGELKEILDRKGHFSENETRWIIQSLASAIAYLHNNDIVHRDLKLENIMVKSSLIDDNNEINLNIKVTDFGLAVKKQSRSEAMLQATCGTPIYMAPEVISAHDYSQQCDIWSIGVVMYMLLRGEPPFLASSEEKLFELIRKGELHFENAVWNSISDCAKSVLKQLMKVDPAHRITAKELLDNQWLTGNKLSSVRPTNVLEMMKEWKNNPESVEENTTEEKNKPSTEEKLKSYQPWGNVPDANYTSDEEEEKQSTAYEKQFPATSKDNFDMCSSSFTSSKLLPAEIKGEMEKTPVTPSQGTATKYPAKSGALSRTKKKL
Mitogen-activated protein kinase 10 (Homo sapiens), sequence (P53779 whole entry): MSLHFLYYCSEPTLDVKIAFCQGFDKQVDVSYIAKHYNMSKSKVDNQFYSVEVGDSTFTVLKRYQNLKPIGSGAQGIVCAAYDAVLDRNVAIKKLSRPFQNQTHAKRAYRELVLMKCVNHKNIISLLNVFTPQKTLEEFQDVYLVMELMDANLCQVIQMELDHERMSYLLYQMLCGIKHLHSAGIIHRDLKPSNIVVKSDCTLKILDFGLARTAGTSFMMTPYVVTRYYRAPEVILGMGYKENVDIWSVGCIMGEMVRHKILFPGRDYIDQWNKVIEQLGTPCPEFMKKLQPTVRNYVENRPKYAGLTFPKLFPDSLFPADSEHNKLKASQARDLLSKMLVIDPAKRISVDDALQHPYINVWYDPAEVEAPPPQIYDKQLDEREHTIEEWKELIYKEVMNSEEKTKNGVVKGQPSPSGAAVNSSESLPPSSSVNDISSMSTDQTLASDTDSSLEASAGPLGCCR

| residual activity [2] | residual activity [3] | residual activity [4] | residual activity [5] | residual activity [6] | residual activity [7] | residual activity [8] | residual activity [9] | residual activity [10] | residual activity [11] | SMILES | residual activity [1] |
| --- | --- | --- | --- | --- | --- | --- | --- | --- | --- | --- | --- |
| 59% | 86% | 97% | 96% | 67% | 78% | 95% | 100% | 98% | 123% | COc1cc2c(Oc3ccc(-c4nc5ccccc5s4)cc3)ncnc2cc1OCCCN1CCCC1 | 86% |
| 57% | 90% | 100% | 81% | 67% | 78% | 98% | 113% | 90% | 134% | COc1cc2c(Oc3ccc(-c4nc5ccccc5s4)cc3)ncnc2cc1OCCCN1CCN(C)CC1 | 84% |
| 73% | 93% | 103% | 85% | 60% | 88% | 99% | 87% | 81% | 100% | COc1cc2c(Oc3ccc(-c4nc5ccccc5s4)cc3F)ncnc2cc1OCCCN1CCN(C)CC1 | 81% |
